The target of one test is T1, 5-lipoxygenase (Homo sapiens, UniProt P09917).
T1 construct: endogenous in cells; host or cells: leukocytes isolated from fresh human blood
T1 sequence (P09917 1-674): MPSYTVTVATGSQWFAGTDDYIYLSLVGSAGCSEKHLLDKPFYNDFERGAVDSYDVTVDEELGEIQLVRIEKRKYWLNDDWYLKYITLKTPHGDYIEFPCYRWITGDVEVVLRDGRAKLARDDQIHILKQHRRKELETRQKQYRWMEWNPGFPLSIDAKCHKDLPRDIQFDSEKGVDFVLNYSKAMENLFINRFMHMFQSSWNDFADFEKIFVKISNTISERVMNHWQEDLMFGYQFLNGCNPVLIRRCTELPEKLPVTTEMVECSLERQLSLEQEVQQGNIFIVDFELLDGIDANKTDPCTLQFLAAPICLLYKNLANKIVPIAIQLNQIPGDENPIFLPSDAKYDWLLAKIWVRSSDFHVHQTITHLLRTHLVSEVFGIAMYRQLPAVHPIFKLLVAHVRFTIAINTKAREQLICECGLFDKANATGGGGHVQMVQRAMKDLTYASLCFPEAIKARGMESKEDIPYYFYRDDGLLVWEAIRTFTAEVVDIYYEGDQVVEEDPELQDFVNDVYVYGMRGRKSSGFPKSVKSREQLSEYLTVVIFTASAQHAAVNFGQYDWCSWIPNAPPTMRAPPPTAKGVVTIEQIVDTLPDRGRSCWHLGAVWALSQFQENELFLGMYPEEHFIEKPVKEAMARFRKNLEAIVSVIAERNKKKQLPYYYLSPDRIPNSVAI
Description: 5-Lipoxygenase Assay Using Isolated Human Leukocytes (5LOA2), 5-HETE formation. It counts as cell-based. To be noted: for IC50: 50% inhibition of 5-HETE formation in human leukocytes, 20 μM arachidonic acid, 10 μM A23187, read-out: 5-LOA IC50; for inhibition at 20 µM: read-out: 5-LOA % inhibition at 20 μM. On the procedure:
5-Lipoxygenase Assay Using Isolated Human Leukocytes (5LOA2)
The formation of 5-HETE in human leukocytes is considered a measure of 5-lipoxygenase activity. The protocol is described in the following.
Fresh heparinized or EDTA treated human blood is mixed with 6% dextran-3% dextrose in isotonic saline in the ratio 0.25 ml dextran solution per 1.0 ml blood. After mixing the blood is allowed to sit at room temperature for about 90 minutes while the RBC's settle. During this period, the plasma is removed with a plastic pipette to nalgens tubes.
The plasma is centrifuged at 800 rpm ([…]) on the Beckman Td-b refrigerated centrifuge to remove the platelets (which remain in the supernatant). The pellet, consisting of leukocytes and erythrocytes, is treated with 10 ml 0.87% ammonium chloride at room temperature for four minutes, lysing the red cells. At the end of four minutes the cells are diluted with a 2× volume of phosphate buffered saline, pH 7.4, and centrifuged for ten minutes. The cells are washed three times with the phosphate buffered saline. Any of the pelleted cell matter which is not easily resuspended is discarded during the washings--the material contains platelets (12-lipoxygenase activity).
After washing, the cells are resuspended in phosphate buffered saline containing 1.0 mM calcium and 0.5 mM magnesium. After counting, the cells are diluted to 1.5-2.0×10^-7 leukocytes per milliliter.
To each poly propylene reaction tube is added 0.48 ml leukocytes in Ca-Mg phosphate buffered saline, pH 7.4; 1-5 μl test compound dissolved in DMSO and buffer; or DMSO for control tubes.
The tubes preincubate at 37° C. for five minutes.
The reaction is started by adding 20 μl of the following, 0.5 μl, 20 mM arachidonic acid--final concentration =20 μm; 1 μl, 5 mM calcium ionophore A23187--final concentration =10 μm; and 18.5 μl buffer.
The reaction proceeds for five minutes, then is stopped by adding 0.5 ml, 0.5 mM ice cold Tris buffer, pH 8.0. The tubes are chilled on ice for ten minutes and then extracted three times with a total of 3.5 ml ethyl acetate (3.0 ml removed).
The tubes can be stored at this point. For extended storage, the tubes should be filled with nitrogen.
The ethyl acetate is evaporated with a Sorvall Speed-Vac. The residue is dissolved in ethanol. The tubes can also be stored at this point at -20° C. under nitrogen.
A portion of the ethanol solution is injected into the HPLC system for 5-HETE quantitation.
The HPLC system consists of Hewlett-Packard 1040A UV spectrophotometry system with an HP85 computer. Injections are made automatically with a Waters WISP 710B. The pump is a Spectra Physics SP8700. Peaks are measured with a Hewlett Packard 3390A integrator. An RP C-18 column is used. The solvent system is isocratic; the solvent is 70% methanol and 30% 0.01M sodium acetate, pH 5.7, pumped at 1.0 ml/min. The flow is monitored at 235 nm for 5-HETE quantitation. Using a 15 cm Alltech Nucleosil C-18 5 μM column provides for a sample turnaround time of about 16 minutes.
IC50 is calculated as the amount of test agent that causes 50% inhibition of the formation of 5-HETE relative to the control.

The next test has as its target T2, Cyclooxygenase (Bos taurus, UniProt O62664).
T2 construct: The assay consists of incubating 2 mg bovine seminal vesicle powder; from tissue; host or cells: bovine seminal vesicle powder
T2 sequence (O62664 25-600): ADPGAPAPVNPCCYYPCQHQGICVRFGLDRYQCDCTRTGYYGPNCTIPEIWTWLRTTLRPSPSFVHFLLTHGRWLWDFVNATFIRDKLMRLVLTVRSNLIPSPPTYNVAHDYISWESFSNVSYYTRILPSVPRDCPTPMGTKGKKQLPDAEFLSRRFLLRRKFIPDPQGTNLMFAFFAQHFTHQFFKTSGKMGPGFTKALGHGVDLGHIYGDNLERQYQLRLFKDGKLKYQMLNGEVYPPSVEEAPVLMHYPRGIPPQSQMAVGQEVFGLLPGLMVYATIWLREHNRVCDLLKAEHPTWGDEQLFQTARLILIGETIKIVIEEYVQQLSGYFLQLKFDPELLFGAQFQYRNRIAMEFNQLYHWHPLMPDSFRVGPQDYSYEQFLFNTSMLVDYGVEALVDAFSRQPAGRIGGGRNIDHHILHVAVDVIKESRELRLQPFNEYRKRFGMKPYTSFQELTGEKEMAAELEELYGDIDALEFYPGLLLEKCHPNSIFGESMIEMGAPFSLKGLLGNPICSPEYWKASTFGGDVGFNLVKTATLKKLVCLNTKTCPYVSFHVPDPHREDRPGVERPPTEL
Description: Cyclooxygenase Enzyme Assay (BSV), bovine seminal vesicle powder, PGE2 formation. It counts as biochemical. To be noted: 100 μM arachidonic acid, 20 minutes. The procedure: Cyclooxygenase Enzyme Assay (BSV) […]
The assay consists of incubating 2 mg bovine seminal vesicle powder with 2 mM epinephrine, 2.5 mM reduced glutathione, 100 μM arachidonic acid, and the test agent for 20 minutes. The reaction mixture is acidified and extracted with ethyl acetate (3×1.0 ml) and the pooled extract is evaporated to dryness using a Speed Vac Concentrator or under a stream of nitrogen. The residue is dissolved in ethanol An aliquot is applied on 20×20 cm silica gel plate and developed using water:ethyl acetate:hexane:acetic acid (60:54:25:12.5, upper phase) to separate PGE2 from arachidonic acid. ^14 C-PGE2 formed is identified by co-chromatography with authentic ^3 H-PGE2 and the amount of radioacitvity is quantitated using an automatic TLC linear scanner (Berthold, Pittsburgh, Pa.) linked to an Apple II-e computer and an ICso is calculated as the amount of test agent causing 50% inhibition of Cyclooxygenase Enzyme relative to the control.

As usually defined, the IC50 is the concentration that gives 50% inhibition. Turning to `Nc1cc(/C=C/C(CCc2ccccc2)=NO)ccc1O` (single isomer, unassigned) [23 (Isomer A), 1-Penten-3-one, 1-(3-amino-4-hydroxyphenyl)-5-phenyl, oxime], the 50% inhibitory concentration (IC50) stood at 0.165 µM on 5-lipoxygenase and 98 µM on Cyclooxygenase.

On to `Nc1cc(/C=C/C(CCc2ccccc2)=NO)ccc1O` (single isomer, unassigned) [23 (Isomer B), 1-Penten-3-one, 1-(3-amino-4-hydroxyphenyl)-5-phenyl, oxime], for which the values for the IC50 at 5-lipoxygenase and against Cyclooxygenase were 0.26 µM and 90 µM, respectively. Regarding `COc1ccc(C=CC(=O)CCCCc2ccccc2)cc1O` [Example 1, 1-(3-Hydroxy-4-methoxyphenyl)-7-phenyl-1-hepten3-one], on 5-lipoxygenase, the IC50 was found to be 11 µM. As for `O=C(/C=C/c1ccc(O)c(O)c1)CCCCc1ccccc1` [Example 2, 1-(3,4-dihydroxyphenyl)-7-phenyl-1-hepten-3-one], the IC50 on 5-lipoxygenase worked out at 1.7 µM. For orientation: inhibition means the relative decrease from the control value, in per cent. With `O=C(/C=C/c1ccc(O)cc1)CCCCc1ccccc1` [Example 3], the inhibition at 20 µM at 5-lipoxygenase turned out to be 30%. On to `O=C(/C=C/c1ccc(O)c(CO)c1)CCCCc1ccccc1` [Example 4], for which, on 5-lipoxygenase, the inhibition at 20 µM was determined as 17%. In the case of `O=C(/C=C/c1ccc(O)c(Cl)c1)CCCCc1ccccc1` [Example 5], the IC50 at 5-lipoxygenase was 8.8 µM.

Take `O=C(/C=C/c1ccc(C(=O)O)cc1)CCCCc1ccccc1` [Example 6]: the inhibition at 20 µM at 5-lipoxygenase amounted to 19%. Consider `COc1cc(/C=C/C(=O)CCCc2ccccc2)ccc1O` [Example 7], for which the concentration for half-maximal inhibition (IC50) at 5-lipoxygenase was determined as 18 µM.

`O=C(/C=C/c1ccc(O)c(O)c1)CCCc1ccccc1` [Example 8]: at 5-lipoxygenase, the IC50 came out at 2 µM. For the compound `COc1cc(/C=C/C(=O)CCc2ccccc2)ccc1O` [Example 9], the 50% inhibitory concentration (IC50) at 5-lipoxygenase stood at 15 µM; against Cyclooxygenase it was 31 µM.

With `O=C(/C=C/c1ccc(O)c(CO)c1)CCc1ccccc1` [Example 10], the concentration for half-maximal inhibition (IC50) on 5-lipoxygenase is 18 µM; against Cyclooxygenase it was 92 µM. As to `O=C(/C=C/c1ccc(O)c(Cl)c1)CCc1ccccc1` [Example 11], the results for the IC50 at 5-lipoxygenase and on Cyclooxygenase were 22 µM and 110 µM, respectively.

Regarding `O=C(/C=C/c1ccc(O)c([N+](=O)[O-])c1)CCc1ccccc1` [Example 12, 1-Pentene-3-one, 1-(4-hydroxy-3-nitrophenyl)-5-phenyl], at 5-lipoxygenase, the inhibition at 20 µM was determined as 22%. This compound also registered an IC50 against Cyclooxygenase of 135 µM. `COc1cc(C=CC(=O)CCc2ccc(O)c(OC)c2)ccc1O` [Example 13, 1-Penten-3-one, 1,5-bis(4-hydroxy-3-methoxyphenyl)]: the figures for the IC50 on 5-lipoxygenase and against Cyclooxygenase were 19 µM and 84 µM, respectively.

Consider `COc1cc(C=CC(=O)CCCOc2ccccc2)ccc1O` [Example 14, 1-(4-Hydroxy-3-methoxyphenyl)-6-phenoxy-1-hexene-3-one], for which the IC50 on 5-lipoxygenase worked out at 11 µM; at Cyclooxygenase, 31 µM. Consider `Nc1cc(/C=C/C(=O)CCc2ccccc2)ccc1O` [Example 15, 1-Pentene-3-one, 1-(3-amino-4-hydroxyphenyl)-5phenyl], for which the IC50 is 0.079 µM on 5-lipoxygenase and 169 µM against Cyclooxygenase.

Consider `COc1cc(C=CC(=O)COc2ccccc2)ccc1O` [Example 16, 1(4'-Hydroxy-3'-methoxyphenyl)-4-phenoxy-1-butene-3-one], for which the IC50 at 5-lipoxygenase is 20 µM; against Cyclooxygenase, 130 µM. `COc1cc(C=CC(=O)CSc2ccccc2)ccc1O` [Example 16A, 1-(4-Hydroxy-3-methoxyphenyl)-4-phenylthio-1-butene-3-one]: the IC50 at 5-lipoxygenase stood at 12 µM. As to `COc1cc(/C=C/C(CCCCc2ccccc2)=NO)ccc1O` [Example 17, 1-Hepten-3-one, 1-(4-hydroxy-3-methoxyphenyl)-7-phenyl, oxime], the IC50 on 5-lipoxygenase turned out to be 1.7 µM; at Cyclooxygenase it was 23 µM. `COc1ccc(/C=C/C(CCCCc2ccccc2)=NO)cc1O` [Example 18]: on 5-lipoxygenase, the half-inhibitory concentration (IC50) was 5.9 µM.

For `ON=C(/C=C/c1ccc(O)c(O)c1)CCCCc1ccccc1` [Example 19, 1-Hepten-3-one, 1-(3,4-dihydroxyphenyl)-7-phenyl, oxime], the IC50 at 5-lipoxygenase is 1 µM; against Cyclooxygenase it was 125 µM. Take `OCc1cc(/C=C/C(CCCCc2ccccc2)=NO)ccc1O` [Example 20]: at 5-lipoxygenase, the IC50 turned out to be 8.7 µM. As to `COc1cc(/C=C/C(CCc2ccccc2)=NO)ccc1O` [Example 21, 1-Penten-3-one, 1-(4-hydroxy-3-methoxyphenyl)-5-phenyl, oxime], the IC50 on 5-lipoxygenase was 0.42 µM; against Cyclooxygenase, 33 µM.

As to `OCc1cc(/C=C/C(CCc2ccccc2)=NO)ccc1O` [Example 22], on 5-lipoxygenase, the IC50 is 35 µM. For the compound `COc1cc(C=CC(COc2ccccc2)=NO)ccc1O` [Example 24, 1-(4-Hydroxy-3-methoxyphenyl)-4-phenoxy-1-buten-3-one oxime], the IC50 at 5-lipoxygenase is 2.5 µM; at Cyclooxygenase, 57 µM.

For `COc1cc(C=CC(CCCOc2ccccc2)=NO)ccc1O` [Example 25, 1-(4-Hydroxy-3-methoxyphenyl)-6-phenoxy-1-hexen-3-one oxime], the concentration for half-maximal inhibition (IC50) was 0.71 µM on 5-lipoxygenase and 170 µM at Cyclooxygenase. As to `CON=C(C=Cc1ccc(O)c(OC)c1)CCCCc1ccccc1` [Example 26, 1-(4-Hydroxy-3-methoxyphenyl)-7-phenyl-1-hepten-3-one, O-methyl oxime], the 50% inhibitory concentration (IC50) at 5-lipoxygenase came to 3 µM.

The values above are taken from patent US5142095A, “Diarylalkanoids having activity as lipoxygenase inhibitors” (Warner-Lambert Company, priority 1989, dated 1992).
